In PubChem BioAssay AID1259407 (Chemical Carcinogenesis Research Information System (CCRIS), 2018):
The source made the active and inactive calls. How the calls were made is not given here.

Tested on: CCRIS mutagenicity, Ames/micronucleus/aberration tests
Test: CCRIS mutagenicity studies
[1] = Test System: AMES SALMONELLA TYPHIMURIUM, Strain/Indicator: TA98, Metabolic Activation: NONE, Method: PREINCUBATION
[2] = Test System: AMES SALMONELLA TYPHIMURIUM, Strain/Indicator: TA98, Metabolic Activation: NONE, Method: STANDARD PLATE
[3] = Test System: AMES SALMONELLA TYPHIMURIUM, Strain/Indicator: TA98, Metabolic Activation: S-9, Method: STANDARD PLATE
[4] = Test System: AMES SALMONELLA TYPHIMURIUM, Strain/Indicator: TA100, Metabolic Activation: NONE, Method: PREINCUBATION
[5] = Test System: AMES SALMONELLA TYPHIMURIUM, Strain/Indicator: TA100, Metabolic Activation: NONE, Method: STANDARD PLATE
[6] = Test System: AMES SALMONELLA TYPHIMURIUM, Strain/Indicator: TA100, Metabolic Activation: S-9, Method: STANDARD PLATE
[7] = Test System: AMES SALMONELLA TYPHIMURIUM, Strain/Indicator: TA1535, Metabolic Activation: NONE, Method: STANDARD PLATE
[8] = Test System: AMES SALMONELLA TYPHIMURIUM, Strain/Indicator: TA1537, Metabolic Activation: NONE, Method: STANDARD PLATE

For CCc1cccc(CC)c1N(COC)C(=O)CCl, the mutagenic call (End Point: IN VITRO CHROMOSOMAL ABERRATIONS, Test System: PERIPHERAL BLOOD HUMAN LYMPHOCYTES, Metabolic Activation: NONE) was “inactive; negative; chromosomal aberrations not increased but chromatid-type aberrations i”, the mutagenic call (End Point: IN VITRO MICRONUCLEUS, Test System: HUMAN PERIPHERAL BLOOD LYMPHOCYTES, Metabolic Activation: NONE) was “active; positive; result at highest dose; variation among donors” and the mutagenic call (End Point: IN VITRO MICRONUCLEUS, Test System: HUMAN PERIPHERAL BLOOD LYMPHOCYTES, Metabolic Activation: S-9) was “active; positive; result at highest dose; variation among donors”. The mutagenic call (End Point: IN VITRO MICRONUCLEUS, Test System: PERIPHERAL BLOOD HUMAN LYMPHOCYTES, Metabolic Activation: NONE) was “active; positive; variation among donors”, the mutagenic call [1] was “inactive; negative” and the mutagenic call [2] was “inactive; negative”. For the same compound, the mutagenic call (Test System: AMES SALMONELLA TYPHIMURIUM, Strain/Indicator: TA98, Metabolic Activation: RAT, LIVER, MICROSOMES, PHENOBARBITAL, Method: PREINCUBATION) was “inactive; negative”, the mutagenic call [3] was “inactive; negative” and the mutagenic call [4] was “inactive; negative”. For the same compound, the mutagenic call [5] was “inactive; negative”, the mutagenic call (Test System: AMES SALMONELLA TYPHIMURIUM, Strain/Indicator: TA100, Metabolic Activation: RAT OLFACTORY S-9, Method: PREINCUBATION) was “active; positive” and the mutagenic call (Test System: AMES SALMONELLA TYPHIMURIUM, Strain/Indicator: TA100, Metabolic Activation: RAT RESPIRATORY S-9, Method: PREINCUBATION) was “inactive; negative”. For the same compound, the mutagenic call (Test System: AMES SALMONELLA TYPHIMURIUM, Strain/Indicator: TA100, Metabolic Activation: RAT, LIVER, MICROSOMES, PHENOBARBITAL, Method: PREINCUBATION) was “inactive; negative”, the mutagenic call (Test System: AMES SALMONELLA TYPHIMURIUM, Strain/Indicator: TA100, Metabolic Activation: RAT, LIVER, S-9, Method: PREINCUBATION) was “active; positive” and the mutagenic call [6] was “inactive; negative”. The mutagenic call [7] was “inactive; negative”, the mutagenic call (Test System: AMES SALMONELLA TYPHIMURIUM, Strain/Indicator: TA1535, Metabolic Activation: S-9, Method: STANDARD PLATE) was “inactive; negative” and the mutagenic call [8] was “inactive; negative”. The mutagenic call (Test System: AMES SALMONELLA TYPHIMURIUM, Strain/Indicator: TA1537, Metabolic Activation: S-9, Method: STANDARD PLATE) was “inactive; negative”, the mutagenic call (Test System: AMES SALMONELLA TYPHIMURIUM, Strain/Indicator: TA1538, Metabolic Activation: NONE, Method: STANDARD PLATE) was “active; positive” and the mutagenic call (Test System: AMES SALMONELLA TYPHIMURIUM, Strain/Indicator: TA1538, Metabolic Activation: S-9, Method: STANDARD PLATE) was “inactive; negative”. For the same compound, the mutagenic call (Test System: MOUSE LYMPHOMA, Strain/Indicator: 3.7.2C (TK+/TK-), Metabolic Activation: RAT OLFACTORY S-9, Method: SUSPENSION/PLATE) was “active; positive”.
Cc1ccc(Cl)cc1[N+](=O)[O-] was tested, and the mutagenic call [1] was “inactive; negative”, the mutagenic call (Test System: AMES SALMONELLA TYPHIMURIUM, Strain/Indicator: TA98, Metabolic Activation: RAT, LIVER, S-9, KANECHLOR 500, Method: PREINCUBATION) was “inactive; negative” and the mutagenic call [4] was “inactive; negative”. The mutagenic call (Test System: AMES SALMONELLA TYPHIMURIUM, Strain/Indicator: TA100, Metabolic Activation: RAT, LIVER, S-9, KANECHLOR 500, Method: PREINCUBATION) was “inactive; negative”.
For c1ccc2sc(SNC3CCCCC3)nc2c1, the mutagenic call [2] was “inactive; negative”, the mutagenic call [3] was “inactive; negative” and the mutagenic call [5] was “inactive; negative”. For the same compound, the mutagenic call [6] was “inactive; negative”.
With CC(=O)Nc1ccc(S(=O)(=O)O)c2cc(S(=O)(=O)O)c(N=Nc3ccc(N=Nc4ccc(S(=O)(=O)O)cc4)c4ccc(S(=O)(=O)O)cc34)c(O)c12 the mutagenic call (Test System: AMES SALMONELLA TYPHIMURIUM, Strain/Indicator: TA98, Metabolic Activation: HAMSTER, LIVER, S-9, AROCLOR 1254, Method: STANDARD PLATE) was “inactive; negative”, the mutagenic call [2] was “inactive; negative” and the mutagenic call (Test System: AMES SALMONELLA TYPHIMURIUM, Strain/Indicator: TA98, Metabolic Activation: RAT, LIVER, S-9, AROCLOR 1254, Method: STANDARD PLATE) was “inactive; negative”. For the same compound, the mutagenic call (Test System: AMES SALMONELLA TYPHIMURIUM, Strain/Indicator: TA100, Metabolic Activation: HAMSTER, LIVER, S-9, AROCLOR 1254, Method: STANDARD PLATE) was “inactive; negative”, the mutagenic call [5] was “inactive; negative” and the mutagenic call (Test System: AMES SALMONELLA TYPHIMURIUM, Strain/Indicator: TA100, Metabolic Activation: RAT, LIVER, S-9, AROCLOR 1254, Method: STANDARD PLATE) was “inactive; negative”. The mutagenic call (Test System: AMES SALMONELLA TYPHIMURIUM, Strain/Indicator: TA1535, Metabolic Activation: HAMSTER, LIVER, S-9, AROCLOR 1254, Method: STANDARD PLATE) was “inactive; negative”, the mutagenic call [7] was “inactive; negative” and the mutagenic call (Test System: AMES SALMONELLA TYPHIMURIUM, Strain/Indicator: TA1535, Metabolic Activation: RAT, LIVER, S-9, AROCLOR 1254, Method: STANDARD PLATE) was “inactive; negative”. The mutagenic call (Test System: AMES SALMONELLA TYPHIMURIUM, Strain/Indicator: TA1537, Metabolic Activation: HAMSTER, LIVER, S-9, AROCLOR 1254, Method: STANDARD PLATE) was “inactive; negative”, the mutagenic call [8] was “inactive; negative” and the mutagenic call (Test System: AMES SALMONELLA TYPHIMURIUM, Strain/Indicator: TA1537, Metabolic Activation: RAT, LIVER, S-9, AROCLOR 1254, Method: STANDARD PLATE) was “inactive; negative”. The mutagenic call (Test System: MOUSE LYMPHOMA, Strain/Indicator: L5178Y (TK+/TK-), Metabolic Activation: NONE, Method: SUSPENSION/PLATE) was “inactive; negative. reevaluation of results: negative” and the mutagenic call (Test System: MOUSE LYMPHOMA, Strain/Indicator: L5178Y (TK+/TK-), Metabolic Activation: RAT, LIVER, S-9, AROCLOR 1254, Method: SUSPENSION/PLATE) was “active; positive. reevaluation of results: equivocal”.
In the case of CC(=O)Nc1ccc(N)cc1, the mutagenic call (Test System: AMES SALMONELLA TYPHIMURIUM, Strain/Indicator: TA97, Metabolic Activation: HAMSTER, LIVER, S-9, AROCLOR 1254 (10%), Method: PREINCUBATION) was “inactive; negative”, the mutagenic call (Test System: AMES SALMONELLA TYPHIMURIUM, Strain/Indicator: TA97, Metabolic Activation: NONE, Method: PREINCUBATION) was “inactive; negative” and the mutagenic call (Test System: AMES SALMONELLA TYPHIMURIUM, Strain/Indicator: TA97, Metabolic Activation: RAT, LIVER, S-9, AROCLOR 1254 (10%), Method: PREINCUBATION) was “inactive; negative”. For the same compound, the mutagenic call (Test System: AMES SALMONELLA TYPHIMURIUM, Strain/Indicator: TA98, Metabolic Activation: HAMSTER, LIVER, S-9, AROCLOR 1254 (10%), Method: PREINCUBATION) was “active; positive”, the mutagenic call [1] was “inactive; negative” and the mutagenic call (Test System: AMES SALMONELLA TYPHIMURIUM, Strain/Indicator: TA98, Metabolic Activation: RAT, LIVER, S-9, AROCLOR 1254 (10%), Method: PREINCUBATION) was “active; positive”. The mutagenic call (Test System: AMES SALMONELLA TYPHIMURIUM, Strain/Indicator: TA100, Metabolic Activation: HAMSTER, LIVER, S-9, AROCLOR 1254 (10%), Method: PREINCUBATION) was “inactive; negative”, the mutagenic call [4] was “inactive; negative” and the mutagenic call (Test System: AMES SALMONELLA TYPHIMURIUM, Strain/Indicator: TA100, Metabolic Activation: RAT, LIVER, S-9, AROCLOR 1254 (10%), Method: PREINCUBATION) was “inactive; negative”. For the same compound, the mutagenic call (Test System: AMES SALMONELLA TYPHIMURIUM, Strain/Indicator: TA1535, Metabolic Activation: HAMSTER, LIVER, S-9, AROCLOR 1254 (10%), Method: PREINCUBATION) was “inactive; negative”, the mutagenic call (Test System: AMES SALMONELLA TYPHIMURIUM, Strain/Indicator: TA1535, Metabolic Activation: NONE, Method: PREINCUBATION) was “inactive; negative” and the mutagenic call (Test System: AMES SALMONELLA TYPHIMURIUM, Strain/Indicator: TA1535, Metabolic Activation: RAT, LIVER, S-9, AROCLOR 1254 (10%), Method: PREINCUBATION) was “inactive; negative”. For the same compound, the mutagenic call (Test System: Ames Salmonella typhimurium, Strain/Indicator: TA98, Metabolic Activation: None, Method: Standard Plate) was “inactive; negative”, the mutagenic call (Test System: Ames Salmonella typhimurium, Strain/Indicator: TA100, Metabolic Activation: None, Method: Standard Plate) was “inactive; negative” and the mutagenic call (Test System: Ames Salmonella typhimurium, Strain/Indicator: TA102, Metabolic Activation: None, Method: Standard Plate) was “inactive; negative”. The mutagenic call (Test System: Ames Salmonella typhimurium, Strain/Indicator: TA1535, Metabolic Activation: None, Method: Standard Plate) was “inactive; negative”, the mutagenic call (Test System: Ames Salmonella typhimurium, Strain/Indicator: TA1537, Metabolic Activation: None, Method: Standard Plate) was “inactive; negative” and the mutagenic call (Test System: UDS RODENT HEPATOCYTES, Strain/Indicator: THY INCORP (NON-S-PHASE), Metabolic Activation: NONE, Method: AUTORADIOGRAPHY) was “inactive; negative”.
